Data taken from article PMC3585964, “Tissue Inhibitor of Metalloproteinases-3 Peptides Inhibit Angiogenesis and Choroidal Neovascularization in Mice” (PLoS ONE, 2013).
Entries after “also recorded” stand apart in the source; their conditions may differ.

Columns and labels:
[1] = system: VEGFR-1 (Flt-1)/Fc chimera binding to VEGF; assay: Competitive ELISA, binding of sVEGFR-1/Fc to immobilized VEGF; parameters: species or system human; conditions: 50 ng/ml sVEGFR-1 (Flt-1)
Experimental: (§2) 96 well EIA/RIA strip plates (COSTAR) were coated with 80 ng/ml recombinant VEGF overnight at 4°C, washed and blocked with blocking buffer (1% BSA and 5% sucrose) overnight at 4°C. Series of dilutions were prepared for recombinant proteins representing WT-TIMP-3, NT2:CT3 and N-T3 in PBS or synthetic peptides corresponding to T3-loop 5, T3-loop 6, T3-N or T3-tail peptides in 0.5 M Tris-HCl (pH 7.5). The diluents were mixed with 50 ng/ml recombinant human VEGFR-2 (KDR/Fc chimera, recombinant human VEGFR-1 (Flt-1)/Fc chimera (R&D Systems, Minneapolis, MN) or control human lgG (Sigma Aldrich, St Louis, MO). The mixtures were then added to the VEGF-coated well in a final volume of 100 µL in PBS and incubated for 2 hours at room temperature. Bound VEGFR-2 was detected by HRP-conjugated anti-human lgG(Fc specific) (1∶1000).

[2] = system: PAE/KDR cells; assay: Modified Boyden chamber migration assay; format: cell-based, Porcine; conditions: peptide up to 20 µM; 50 ng/ml VEGF, 4 h 37°C, mini-Boyden chamber; quadruplicate samples
Experimental: (§1) Porcine Aortic Endothelial cells expressing VEGFR-2 (PAEKDR) were cultured in Ham’s F-12/DMEM medium supplemented with 10% fetal bovine serum (FBS) (Hyclone), 50 units/ml penicillin and 50 µg/ml streptomycin as described previously. Recombinant human VEGF was a kind gift from Genentech, CA. Antibodies: Anti-Phosphotyrosine clone 4G10 (Upstate Biotechnology/Millipore, Billerica, MA), monoclonal anti-Flk-1 (A-3) (Santa Cruz Biotechnology, Santacruz, CA), MAPK and phospho-specific MAPK antibodies (Calbiochem-Novabiochem Corporation/EMD chemicals, Gibbstown, NJ).
A modified Boyden chamber assay was performed as described previously. Briefly, 8.0 µm pore PVPF polycarbonate membranes were pre-coated with 100 µg/ml collagen type I in 0.2 N acetic acid (Cohesion technologies, Inc. Palo Alto, California). VEGF at the indicated concentrations was placed in the lower chamber, and cells (2×10^5) in serum-free medium were placed in the upper chambers. […] The number of migrating cells per well was evaluated by light microscopy.
Figure 4 Effects of TIMP-3 peptides on VEGF-mediated EC migration. […] Cells were analyzed for migration towards 50 ng/ml VEGF in the presence or absence of increasing concentrations of loop 6 (a) and tail peptides (b) or 20 µM loop 5 or N-peptide (c), respectively, using a mini-Boyden chamber incubated at 37°C for 4 h.

[3] = system: PAE/KDR cells; assay: VEGF-induced endothelial cell proliferation; format: cell-based, Porcine; conditions: 1 µM peptide, 5 days; for Effect on VEGF-induced endothelial cell proliferation (in words): VEGF 5 ng/ml, ** p<0.01 vs VEGF control in figure legend
Experimental: as §1
Cells were seeded at a density of 2000 cells/well in 24 well culture plates and cultured for 24 h in growth medium. After synchronization overnight in serum-free medium supplemented with 0.1% BSA, the cells were stimulated with or without VEGF […] in the presence or absence of the indicated concentrations of TIMP-3 peptides. After a 5-day incubation, cells were trypsinized and counted using a Coulter particle counter.
Figure 6 Effects of TIMP-3 peptides on VEGF-mediated EC proliferation. […] Serum-starved cells were incubated with or without VEGF (5 ng/ml) in the presence or absence of the 1 µM of TIMP-3 peptides for 5 days.

[4] = system: laser-induced CNV in C57BL/6J mice; assay: Laser-induced choroidal neovascularization (CNV); format: in vivo, mouse; conditions: intravitreal, immediately after laser burn, 14 days, C57BL6 mice
Experimental: All animal studies were approved by the Animal Care and Use Committee of the Cleveland Clinic (IACUC number ARC-08792) and conformed to the National Institutes of Health Guide for the Care and Use of Animals in Research and the ARVO statement for the use of animals in ophthalmic and vision research. All surgery was performed under ketamine/xylazine anesthesia with maximum effort devoted to minimizing suffering. Laser photocoagulation-induced rupture of Bruch’s membrane was used to generate CNV as previously described. Briefly, 4–5 week old C57BL/6J mice were anesthetized with ketamine hydrochloride (100 mg/kg body weight) and xylazine (10 mg/kg body weight) followed by1% Tropicamide (Alcon laboratories, Inc., Fort Worth, TX) for pupillary dilation. Three burns of 532-nm diode laser photocoagulation (Oculight; Iridex, Mountain View California; 50-µm spot size, 0.1 second duration, 200 mW) were delivered to each retina using a slit lamp delivery system and a hand held coverslip as a contact lens. Burns were performed in the 9, 12 and 3 o’clock positions of the posterior pole of the retina. […] Two weeks later, mice were anesthetized and perfused with fluorescein-labeled dextran (2×10^6 average molecular weight, Sigma Aldrich), choroidal flatmounts were prepared and CNV area measured. […]
Five mice were used for each dose of peptide, with three burns in each eye (n = 15–18 successful burns in each group). For quantitative analysis of lesion intensity and size, CNV images were batch processed using a custom macro generated in Image-Pro Plus 5.1 (Media Cybernetics, Silver Spring, MD). […] Mean intensity (range between 10–255 gray levels), perimeter, area, and mean diameter (pixels) were calculated for each ROI and exported to excel. […]
Figure 7 Inhibition of laser-induced CNV by TIMP-3 peptides. […] Effect of Tail peptides on CNV was evaluated by Fluorescein angiogram and Scanning Laser Ophthalmoscopy (SLO). […] CNV lesion size (area X density) was calculated for each dose of T3N-peptide (Fig. 7g), Loop6-peptide (Fig. 7h) and Tail-peptide (fig. 7i).

[5] = biological target: VEGFR-2 (KDR/Fc chimera) binding to VEGF (Homo sapiens, UniProt P35968); assay: Competitive ELISA, binding of sVEGFR-2/Fc to immobilized VEGF; conditions: competitive ELISA, 50 ng/ml sVEGFR-2, peptides in 0.5 M Tris-HCl pH 7.5
VEGFR-2 (KDR/Fc chimera) binding to VEGF, sequence (P35968 with tags, fused parts or gaps limits assumed): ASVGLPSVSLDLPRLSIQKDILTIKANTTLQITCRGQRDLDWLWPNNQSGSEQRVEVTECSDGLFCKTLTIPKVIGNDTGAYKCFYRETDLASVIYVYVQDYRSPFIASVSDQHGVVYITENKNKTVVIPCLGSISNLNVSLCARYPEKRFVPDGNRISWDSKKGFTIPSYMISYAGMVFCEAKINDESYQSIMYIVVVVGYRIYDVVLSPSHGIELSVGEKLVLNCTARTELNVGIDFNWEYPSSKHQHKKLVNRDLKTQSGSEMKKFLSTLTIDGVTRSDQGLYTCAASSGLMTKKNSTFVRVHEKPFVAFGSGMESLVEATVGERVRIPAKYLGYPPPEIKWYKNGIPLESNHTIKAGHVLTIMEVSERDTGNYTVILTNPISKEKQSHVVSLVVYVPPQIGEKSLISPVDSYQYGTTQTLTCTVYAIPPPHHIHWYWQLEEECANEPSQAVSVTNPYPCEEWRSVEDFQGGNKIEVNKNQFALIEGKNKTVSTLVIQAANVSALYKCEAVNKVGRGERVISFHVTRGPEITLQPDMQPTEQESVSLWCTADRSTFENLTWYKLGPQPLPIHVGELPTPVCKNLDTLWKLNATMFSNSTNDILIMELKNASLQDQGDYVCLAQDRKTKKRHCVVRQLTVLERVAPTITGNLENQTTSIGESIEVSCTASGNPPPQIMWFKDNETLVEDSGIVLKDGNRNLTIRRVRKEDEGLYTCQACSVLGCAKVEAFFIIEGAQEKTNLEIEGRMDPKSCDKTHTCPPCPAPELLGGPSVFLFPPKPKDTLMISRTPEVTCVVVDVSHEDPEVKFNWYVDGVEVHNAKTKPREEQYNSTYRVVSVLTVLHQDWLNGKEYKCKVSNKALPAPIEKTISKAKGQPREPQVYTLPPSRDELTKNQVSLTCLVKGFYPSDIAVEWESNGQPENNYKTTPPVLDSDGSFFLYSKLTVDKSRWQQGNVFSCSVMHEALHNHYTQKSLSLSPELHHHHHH
Experimental: as §2

Sequence | Effect of synthetic peptides on VEGF binding to VEGFR-1 (in words) [1] | Inhibition of VEGF-induced migration [2] | Possible induction of endothelial cell proliferation [3] | Effect on VEGF-induced endothelial cell proliferation (in words) [3] | Inhibition of laser-induced CNV (overall statement) [4] | Effect of synthetic peptides on VEGF binding to sVEGFR-2 (in words) [5] | Effect of synthetic peptides on VEGF binding to sVEGFR-2 (in words) ([5]; listed as Loop5) | Inhibition of laser-induced CNV (overall statement) ([4]; listed as N-terminal)
KIKSCYYLPCFVTS [T3-loop 5] | unable to inhibit sVEGFR-1-VEGF complexes | failed to inhibit VEGF-induced migration | may in fact induce proliferation of endothelial cells | neither T3-loop 5 nor T3-N peptide showed inhibitory properties | no angio-inhibitory activity in vitro or in vivo | did not show any inhibitory activity | have no effect on sVEGFR-2-VEGF complexes | –
RGFTKMPHVQYIHTEASESL [T3-N peptide] | unable to inhibit sVEGFR-1-VEGF complexes | failed to inhibit VEGF-induced migration | may in fact induce proliferation of endothelial cells | neither T3-loop 5 nor T3-N peptide showed inhibitory properties | not N-peptide inhibit laser-induced CNV | did not show any inhibitory activity; also recorded: have no effect on sVEGFR-2-VEGF complexes | – | no angio-inhibitory activity in vitro or in vivo
